Source: ChEMBL document CHEMBL1141353, “Three biscembranoids and their monomeric counterpart cembranoid, a biogenetic Diels-Alder precursor, from the soft coral Sarcophyton elegans” (J Nat Prod, 2007)
Calls of active or inactive are those of the source. The rule behind the calls is not given here.

Tests used:
[1] = test system: Escherichia coli; test: Antibacterial activity against Escherichia coli at 1.5 ug/ml; type: functional, organism-based
[2] = Toxicity in brine shrimp assessed as survival rate after 24 hrs; type: organism-based; details: artemia salina, in vivo

COC(=O)[C@]12CC(=O)[C@H](C(C)C)CC(=O)[C@H](C)CCC[C@H](C)CC(=O)[C@H]1CC(C)=C1C[C@H](O)[C@@]3(C)O[C@@H](CC/C(C)=C/[C@@H]12)[C@@]1(C)CC[C@@H]3O1
Activity [1]: Active

COC(=O)[C@]12CC(=O)[C@H](C(C)C)CC(=O)[C@H](C)CCC[C@H](C)CC(=O)[C@H]1CC(C)=C1C[C@H](O)[C@]3(C)O[C@@H]3CC[C@]3(C)O[C@@H]3CC/C(C)=C/[C@@H]12 [DIEPOXYNYALOLIDE]
LC50 at 24 h [2]: 1.5 µM

COC(=O)/C1=C/C(=O)C[C@@H](C)CCC[C@@H](C)C(=O)C[C@@H](C(C)C)C(=O)C1 [METHYL TETRAHYDROSARCOATE]
LC50 at 24 h [2]: 1.5 µM
